Results taken from ChEMBL document CHEMBL1150034, “Synthesis of peptidyl acetals as inhibitors of prolyl endopeptidase” (Bioorg Med Chem Lett, 1995).

Molecular target: T1, Prolyl endopeptidase (Homo sapiens, UniProt P48147)
T1 sequence (P48147 whole entry): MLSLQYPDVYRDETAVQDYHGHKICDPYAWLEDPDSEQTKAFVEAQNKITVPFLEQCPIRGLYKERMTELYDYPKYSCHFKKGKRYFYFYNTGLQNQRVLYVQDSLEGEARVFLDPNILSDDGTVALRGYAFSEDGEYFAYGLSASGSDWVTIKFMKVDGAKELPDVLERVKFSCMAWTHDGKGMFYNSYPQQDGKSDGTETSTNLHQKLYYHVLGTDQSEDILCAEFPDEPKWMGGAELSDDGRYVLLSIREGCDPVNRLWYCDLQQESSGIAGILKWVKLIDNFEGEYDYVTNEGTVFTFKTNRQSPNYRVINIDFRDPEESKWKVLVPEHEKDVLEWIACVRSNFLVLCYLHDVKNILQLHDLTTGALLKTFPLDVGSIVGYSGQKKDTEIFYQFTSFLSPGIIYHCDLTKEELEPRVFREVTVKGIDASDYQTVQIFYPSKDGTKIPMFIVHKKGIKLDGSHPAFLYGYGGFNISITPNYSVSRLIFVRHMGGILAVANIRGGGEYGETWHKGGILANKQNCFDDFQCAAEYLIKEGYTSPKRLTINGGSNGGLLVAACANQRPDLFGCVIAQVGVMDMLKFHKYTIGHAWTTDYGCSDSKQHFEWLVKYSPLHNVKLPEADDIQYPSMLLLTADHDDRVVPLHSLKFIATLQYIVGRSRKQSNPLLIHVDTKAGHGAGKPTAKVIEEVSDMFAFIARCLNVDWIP
Assay: Compound was evaluated for the inhibition of prolyl endopeptidase (PEP) purified from human peripheral blood mononuclear cells

| IC50 [µM] | Structure (SMILES) |
| --- | --- |
| 6.5 | COCC1COC(C2CCCN2C(=O)C2CCCN2C(=O)OCc2ccccc2)O1 (configuration not stated) |
| 2.6 | COC(OC)C1CSCN1C(=O)C1CSCN1C(=O)OCc1ccccc1 (configuration not stated) |
